Assays:
matriptase = matriptase (Homo sapiens, UniProt Q9Y5Y6); conditions: background statement; cited from earlier work
cathepsin G = target: T1, cathepsin G (Homo sapiens, UniProt P08311); conditions: background statement; cited from earlier work
T1 sequence (P08311 21-244): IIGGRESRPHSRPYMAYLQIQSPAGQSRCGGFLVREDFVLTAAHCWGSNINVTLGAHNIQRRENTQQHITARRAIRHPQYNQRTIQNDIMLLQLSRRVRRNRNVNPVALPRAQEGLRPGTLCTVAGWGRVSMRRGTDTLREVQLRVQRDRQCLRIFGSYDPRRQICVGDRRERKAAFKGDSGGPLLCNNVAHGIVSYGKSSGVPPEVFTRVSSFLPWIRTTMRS

thrombin = thrombin (Homo sapiens, UniProt P00734); conditions: background statement; cited from earlier work
bovine thrombin = target: T2, bovine thrombin (Bos taurus, UniProt P00735); assay: Thrombin inhibition, fluorescent substrate N-t-Boc Leu-Arg-Arg-AMC, Ki by Dixon plots; format: biochemical; conditions: read-out: Ki of SFTI-1 (nM), Thrombin; room temperature, pH 8.5
T2 construct: purchased Sigma (Sigma Chemical Co., St. Louis, Mo.)
Description: (§1) 13, 2003, and which is incorporated herein by reference.

elastase = conditions: background statement; cited from earlier work
Factor Xa = Factor Xa (Homo sapiens, UniProt P00742); conditions: Luckett et al. J Mol. Biol. 1999; cited from earlier work
Chain of Factor Xa (P00742 235-488 limits assumed): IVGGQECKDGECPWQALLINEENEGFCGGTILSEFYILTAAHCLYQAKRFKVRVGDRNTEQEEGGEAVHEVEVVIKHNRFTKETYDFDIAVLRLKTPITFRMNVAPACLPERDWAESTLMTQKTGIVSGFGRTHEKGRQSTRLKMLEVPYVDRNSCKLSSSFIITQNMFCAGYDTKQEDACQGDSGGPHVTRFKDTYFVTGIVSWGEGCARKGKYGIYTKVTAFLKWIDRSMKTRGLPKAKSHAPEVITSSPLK
Chain of Factor Xa (P00742 41-179 partner limits assumed): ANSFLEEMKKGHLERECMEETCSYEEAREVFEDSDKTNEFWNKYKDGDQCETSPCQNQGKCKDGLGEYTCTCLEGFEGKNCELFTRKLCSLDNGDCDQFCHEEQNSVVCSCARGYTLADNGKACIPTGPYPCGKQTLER

[1] = target: T3, Urokinase-type plasminogen activator (uPA) (Homo sapiens, UniProt P00749); assay: uPA inhibition, fluorescent substrate N-t-Boc-Leu-Gly-Arg-AMC, Ki by Dixon plots; format: biochemical; conditions: room temperature, pH 8.5
T3 construct: from a partially purified uPA from human urine; from tissue; host or cells: human urine
Description: as §1

Chain of matriptase (Q9Y5Y6 whole entry, species assumed): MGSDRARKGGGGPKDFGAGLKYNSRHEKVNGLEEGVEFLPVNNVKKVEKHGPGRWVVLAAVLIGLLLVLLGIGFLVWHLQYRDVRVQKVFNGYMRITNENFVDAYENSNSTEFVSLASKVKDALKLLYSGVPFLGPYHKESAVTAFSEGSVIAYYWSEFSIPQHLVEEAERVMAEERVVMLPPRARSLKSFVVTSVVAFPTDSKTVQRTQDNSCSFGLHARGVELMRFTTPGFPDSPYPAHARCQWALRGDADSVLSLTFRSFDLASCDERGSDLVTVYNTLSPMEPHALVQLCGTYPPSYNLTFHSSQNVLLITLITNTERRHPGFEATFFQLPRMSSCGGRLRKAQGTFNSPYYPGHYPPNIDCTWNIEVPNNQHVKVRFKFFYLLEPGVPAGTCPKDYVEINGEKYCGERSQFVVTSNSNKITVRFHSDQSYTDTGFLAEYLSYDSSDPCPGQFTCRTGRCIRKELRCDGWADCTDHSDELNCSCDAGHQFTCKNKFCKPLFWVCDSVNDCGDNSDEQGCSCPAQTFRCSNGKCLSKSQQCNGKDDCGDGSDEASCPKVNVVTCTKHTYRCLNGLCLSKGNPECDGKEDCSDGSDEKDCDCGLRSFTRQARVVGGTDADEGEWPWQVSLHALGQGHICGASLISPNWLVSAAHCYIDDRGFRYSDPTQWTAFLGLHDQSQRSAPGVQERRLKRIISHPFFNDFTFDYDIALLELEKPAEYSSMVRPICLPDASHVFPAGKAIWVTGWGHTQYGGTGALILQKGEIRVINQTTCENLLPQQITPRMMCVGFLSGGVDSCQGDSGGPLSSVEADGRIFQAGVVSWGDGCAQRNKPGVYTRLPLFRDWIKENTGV

CC[C@H](C)[C@@H]1NC(=O)[C@@H]2CCCN2C(=O)[C@@H]2CCCN2C(=O)[C@H]([C@@H](C)CC)NC(=O)[C@H](CO)NC(=O)[C@H](CCCCN)NC(=O)[C@H]([C@@H](C)O)NC(=O)[C@@H]2CSSC[C@H](NC1=O)C(=O)N[C@@H](Cc1ccccc1)C(=O)N1CCC[C@H]1C(=O)N[C@@H](CC(=O)O)C(=O)NCC(=O)N[C@@H](CCCNC(=N)N)C(=O)N2 [SFTI-1]
inhibitory constant (Ki) against matriptase (matriptase): subnanomolar
inhibitory constant (Ki) against cathepsin G (cathepsin G): subnanomolar
inhibitory activity against thrombin compared with matriptase (thrombin): three orders of magnitude lower
Ki (bovine thrombin): 5050 nM
inhibitory activity against elastase compared with matriptase (elastase): three orders of magnitude lower
effect on the activity of Factor Xa (Factor Xa): no detectable effect
Ki [1]: 500 µM

From patent US7439226B2, “Serine protease inhibitors” (The United States of America as represented by the …, priority 2003, dated 2008)
